Measurements as given in patent US20200113902A1, “COMPOSITIONS AND METHODS FOR TREATING CANCERS WITH COVALENT INHIBITORS OF CYCLIN-DEPENDENT KINASE 7 (CDK7)” (Syros Pharmaceuticals, Inc., priority 2017, published 2020).

Experiments:
[1] = tested on: Rad51, CHEK1 and CHEK2 RNA in THP1 cells; assay: Microarray RNA levels of DNA damage repair genes, THP1; assay type: cell-based; conditions: THP1 AML cells; 100 nM, 6 hrs
Protocol: THP1 is an AML cell line. THP1 cells (1×10^6/well) were plated in 6-well plates and treated with vehicle (DMSO), 100 nM Compound 1, 25 nM NVP2 (a CDK9 inhibitor), 250 nM JQ1 (a BRD4 inhibitor) or 200 nM Flavopiridol (a pan-CDK inhibitor) for 6 hrs, after which cells were harvested and total RNA (1,000 ng) isolated. RNA levels of the DNA damage repair genes Rad51, CHEK1 and CHEK2 were analyzed by microarray. Experiments were done in triplicates. We performed RMA normalization of the data using the “affy” package from Bioconductor. The command used is shown below and includes background correction, normalization and summarization:
Next, we performed loess normalization using only spike-ins to enable comparison of expression values across multiple samples.

[2] = tested on: leukemic cells; conditions: leukemic vs non-malignant cells; previously shown; cited from earlier work
[3] = tested on: BR5013 xenografts; assay: TNBC patient-derived xenograft BR5013, tumor volume; assay type: in vivo, mouse; conditions: 40 mg/kg or 30 mg/kg i.v. BIW
Protocol: (§1) Patient-derived xenograft (PDX) models from TNBC patients (BR5010, BR5013, BR5015, and BR5023) were established in NOD-SCID mice at Crown Bioscience (San Diego, USA). Cryo vials containing tumor cells were thawed and prepared for injection into mice. Cells were washed in PBS, counted, and resuspended in cold PBS at a concentration of 50,000-100,000 viable cells/100 ul. Cell suspensions were mixed with an equal volume of Cultrex ECM and kept on ice during transport to the vivarium. Cells were prepared for injections by withdrawing ECM-Cell mixture into a chilled slip-tip syringe fitted with a 26G 7/8 (0.5 mm×22 mm) needle. The filled syringes were kept on ice to avoid the solidification of ECM. Each mouse was inoculated subcutaneously in the right flank with 200 uL of the cell suspension. Tumor sizes were measured in two dimensions using a caliper, and the volumes were expressed in mm^3 using the formula: V=0.5 a×b^2, where a and b are the longest and shortest diameters of the tumor, respectively. Compound 1 treatment was started when the average tumor size reached 150-200 mm^3.
(§2) Compound 1 was formulated in w/v 20% Captisol (pH 4-6) and administered by i.v. twice weekly (BIW) at a final dose of 40 mg/kg or 30 mg/kg in a 10 ml/kg volume. Tumor volumes were measured twice weekly over the course of the study. […]

[4] = tested on: homologous recombination deficiency / carboplatin sensitivity genes in OvCar3 cells; assay: Nanostring PanCancer Pathways mRNA, OvCar3; assay type: cell-based; conditions: 50 nM, 16 hours
Protocol: Ovarian Cell lines OvCar3, TOV21G, A2780 and COV318 were plated at 500,000 cells/well in a 6-well plate the day before treatment. The next day the cells were treated with vehicle or 50 nM Compound 1 for 0, 6, or 16 hours after which cells were harvested and total RNA collected using RNeasy mini kit (Qiagen). Changes in mRNA between samples were analyzed with Nanostring™ PanCancer Pathways Panels specifically analyzing genes related to homologous recombination deficiency and carboplatin sensitivity (ie. BRCA1, BRCA2, Rad51, ATM, ATR, MSH2, MSH6). Nanostring signal intensities were first normalized to housekeeping genes across all cell lines, and then normalized to the 0 hour timepoint within a cell line.

[5] = tested on: MCL1 protein in MDAMB468 cells; assay: Western blot of BCL2 family proteins, MDAMB468; assay type: cell-based, human; conditions: 50 nM or 100 nM, 24 hours
Protocol: Cytotoxic cancer cell lines HCC70 and TOV21G, and cytostatic cancer cell lines T47D and COV318 were seeded in wells of a six-well dish at a density of 1×10^6 cells/well and allowed to adhere overnight. Cells were then treated with 50 nM of Compound 1 for 16 or 24 hours, or with DMSO (0 hours) representing a negative control. Cells were harvested and placed on ice, and resuspended in RIPA lysis buffer supplemented with protease and phosphatase inhibitors. Clarified lysates prepared with 4×LSD running buffer and boiled at 95° C. for 5 minutes. Equivalent amounts of sample (10 μg total protein) were run on a 4-12% Bis-Tris gel and transferred to a PDVF membrane for Western blotting using standard Western blotting protocols. Membranes were blocked with Licor TBS blocking buffer then probed with antibodies for BCL-XL, BCL-2, MCL1, BID, and GAPDH visualized using and Odyssey imager (FIGS. 23A and 23D).
In a similar experiment, TNBC breast cancer cell lines HCC70, MDAMB468, MDAMB453 and CAL-120 were grown as described above and treated with DMSO, 50 nM Compound 1 or 100 nM Compound 1 for 24 hours. Protein samples were prepared as described above for Western blotting using antibodies specific for the indicated proteins in FIG. 29A. […]

[6] = tested on: BR5015 xenografts; assay: TNBC patient-derived xenograft BR5015, tumor volume; assay type: in vivo, mouse; conditions: 40 mg/kg or 30 mg/kg i.v. BIW
Protocol: as §1, §2

## CN(C)C/C=C/C(=O)Nc1ccc(C(=O)N[C@@]2(C)CCC[C@@H](Nc3ncc(Cl)c(-c4c[nH]c5ccccc45)n3)C2)nc1 [Compound 1, N-((1S,3R)-3-(5-chloro-4-(1H-indol-3-yl)pyrimidin-2-ylamino)-1-methylcyclohexyl)-5-((E)-4-(dimethylamino)but-2-enamido)picolinamide]
[1]
  mRNA expression from genes involved in DNA repair (Rad51, CHEK1, CHEK2): Downregulation
[2]
  Induction of apoptosis in vitro: selectively induce apoptosis in leukemic cells relative to non-malignant cells
[3]
  Tumor growth vs untreated historical samples: little inhibitory effect on tumor growth
[4]
  mRNA of genes related to homologous recombination deficiency and carboplatin sensitivity, all genes except Rad51 (BRCA1, BRCA2, ATM, ATR, MSH2, MSH6): downregulated
[5]
  MCL1 protein level (Western blot): downregulated
[6]
  Tumor growth vs untreated historical samples: little inhibitory effect on tumor growth
